Source: patent US20250002467A1, “DESIGN, SYNTHESIS AND MECHANISMS OF ANTICANCER ACTIVITY OF NEW ACETYLATED 5-AMINOSALICYLATE-THIAZOLINONE HYBRID DERIVATIVES” (University of Sharjah, priority 2023, published 2025)
“Also recorded” adds a separate entry of the source.

Legend:
HCT-116 = experiment: SRB cytotoxicity assay, HCT-116; type: cell-based
Source text: (§1) Eight different cancer cell lines were acquired from the Radiobiology and Experimental Radio Oncology lab, University Medical Center, Hamburg University, Hamburg, Germany. MCF7, MDA-MB-231 (breast cancer), and A549 (lung cancer) cells were maintained in RPMI medium while HCT116 (colon cancer), HepG2 (liver cancer), U87, U373 (glioblastoma), and HeLa (cervical cancer) were maintained in DMEM supplemented with 10% FBS and 1% penicillin/streptomycin (Sigma Aldrich, Missouri, USA). Normal human fibroblast (F180) cells were maintained in DMEM supplemented with 15% FBS. Normal human mammary epithelial cell line (HME1) were maintained in DMEM/F-12 medium supplemented with 10% FBS. All incubations were done at 37° C. in a humidified atmosphere of 5% CO2. All cell lines were authenticated by short tandem repeat (STR) profiling. The CDK4 knockout cells (provided by Dr. Samrein Ahmed, University of Sharjah, United Arab Emirates) were generated by CRISPR-CAS9 technology and were maintained in DMEM supplemented with 10% FBS.
(§2) The cytotoxic effects of HH32 and HH33 compounds were evaluated at various concentrations ranging from 0.0001 to 100 μM by sulphrhodamine-B (SRB) assay as described previously. The anti-proliferative activity was expressed as growth inhibitory concentration (IC50) values, which were calculated by the sigmoidal dose-response curve fitting method using Graph pad prism 6 software (GraphPad Software, San Diego, CA, USA).

A549 = experiment: SRB cytotoxicity assay, A549; type: cell-based; details: for IC50: A549, SRB, mean ± SEM
Source text: as §1, §2

MDA-MB-231 = experiment: SRB cytotoxicity assay, MDA-MB-231; type: cell-based
Source text: as §1, §2

U87 = experiment: SRB cytotoxicity assay, U87; type: cell-based; details: for IC50: U87, SRB, mean ± SEM
Source text: as §1, §2

F-180 = experiment: SRB cytotoxicity assay, normal fibroblast F-180; type: cell-based, human; details: F-180 normal fibroblast, mean ± SEM
Source text: as §1, §2

[1] = test system: MCF7, HCT-116 and A549 cells; experiment: Neutral comet assay; type: cell-based; details: for level of DNA damage (tail moment): 0.5 and 1 μM, 24 hours, three cell lines
Method: MCF7, HCT-116 and A549 cells were treated with […] of HH32 or HH33 compounds for 24 hours and control cells were treated with vehicle (DMSO). A group of cells was treated with doxorubicin as a reference drug using the same treatment conditions. Comet assay was performed in neutral condition to detect DNA double-strand breaks using comet assay kit (Trevigen Inc., Maryland, USA) according to the manufacturer's instructions. The tail moment, which reflect the amount of DNA damage in each nucleus, was calculated in at least 50 cells using OpenComet software.

[2] = test system: MCF7, HCT-116, HeLa and A549 cells; experiment: Western blot protein expression analysis; type: cell-based; details: for cyclin E, cyclin D1 and CDK2 levels: G1-S phase transition proteins; for phospho-Rb (ser249): HCT116 and HeLa cells; for level of p-H2Ax (y-H2Ax): MCF7, HeLa, HCT116, and A549 cells, 24 h; for cleavage of caspase-8: all cell lines; for ATR/Chk1 signaling: four cell lines
Method: The protein expression analysis was done after treatment with […] of HH32 and HH33 compounds for 24 hours by western blot. Cell lysates were prepared using lysis buffer containing 20% SDS, glycerol, 1M Tris (pH 6.8) and supplemented with protease and phosphatase inhibitors (Sigma Aldrich, Missouri, USA). The proteins were separated by SDS-PAGE and transblotted into nitrocellulose membrane (Biorad, Hercules, CA, USA). Membrane were incubated overnight at 4° C. with the following primary antibodies: 7H2AX, H2Ax, p21, CDC2, CDC25c, cyclin B, c-Myc, Bid, ATM, p-ATM, ATR, p-ATR, Chk1, p-Chk1, Chk2, p-Chk2, caspase 9, caspase 8, pRb (Ser807/811) (Cell Signaling Technology, Massachusetts, USA), p53, cyclin A, cyclin E, cyclin D1, CDK2, Rb, pRb (Ser249) (Santa Cruz Biotech, Texas, USA) and β-actin (Sigma Aldrich, Missouri, USA). Membranes were then incubated with respective mouse/rabbit secondary antibody (Cell Signaling Technology, Massachusetts, USA) for 1 hour at room temperature and detected by enhanced chemiluminescence (ECL) (Biorad, Hercules, CA, USA) method using Chemi Doc imaging system (Biorad, Hercules, CA, USA). The protein bands were quantified using Image lab™ software (Biorad, Hercules, CA, USA).

MCF7 cells = experiment: Metabolic analysis by GC-MS; type: cell-based
Method: The release of different metabolites following HH32 and HH33 treatment on MCF7 cells was detected using Gas Chromatography-Mass Spectrometry (GC-MS) (Shimadzu, Kyoto, Japan) as was described previously. GC-MS analysis was performed using a QP2010 gas chromatography-mass spectrometer (GC-2010 coupled with a GC-MS QP-2010 Ultra) equipped with an auto-sampler (AOC-20i+s) from Shimadzu (Tokyo, Japan), using Rtx-5 ms column (30 m length×0.25 mm inner diameter x 0.25 μm film thickness; Restek, Bellefonte, PA, USA). Helium (99.9% purity) was used as the carrier gas with the column flow rate of 1 mL/min. Data collection and analysis were performed using MSD Enhanced Chemstation software (Shimadzu, Kyoto, Japan). GC total ion chromatograms (TIC) and fragmentation patterns of the compound were identified using the NIST/EPA/NIH Mass Spectral Library (NIST 14).
Preprocessing and data analysis were performed using an in-house R script. Only compounds registered in Human Metabolome Database (HMDB 4.0) were considered for further analysis. Compounds with more than 70% of missing values were considered unreliable and therefore excluded. Probabilistic Quotient Normalization was used to normalize data due to dilution effects in the extraction procedure. Missing metabolite measurements were imputed using the k-nearest neighbor algorithm with k—3. […] To account for multiple testing, a false discovery rate (FDR) of <15% was applied to reduce the identification of false positives. FDRs were calculated using the q conversion algorithm in multiple comparisons. Principal component analysis (PCA) was used to visualize the metabolomic data. Data were mean-centered and scaled to unit variance before PCA.

[3] = test system: eight tested cancer cell lines; experiment: SRB cytotoxicity assay, eight cancer cell lines; type: cell-based; details: for viability of the eight tested cancer cell lines: SRB, 0.0001 to 100 μM; for selectivity index compared with doxorubicin: cancer cell lines versus normal cells
Source text: as §1, §2

| Compound | Selectivity index (HCT-116; F180 versus HCT116) | Selectivity index (HCT-116; HME1 versus HCT116) | IC50 (A549) [µM] | Selectivity index (A549; F180 versus A549) | Selectivity index (A549; HME1 versus A549) | Selectivity index (MDA-MB-231; F180 versus MDA-MB-231) | Selectivity index (MDA-MB-231; HME1 versus MDA-MB-231) | Selectivity index (U87; F180 versus U87) | Selectivity index (U87; HME1 versus U87) | IC50 (U87) [µM] | IC50 (F-180) [µM] | level of DNA damage (tail moment) [1] | cyclin E, cyclin D1 and CDK2 levels [2] | phospho-Rb (ser249) [2] | phospho-Rb (ser807/811) ([2]; HCT-116) | expression of p53 and p21 ([2]; HeLa cells) | phospho-Rb (ser807/811) ([2]; HeLa cells) | expression of p53 and p21 ([2]; MCF7, HCT-116 and A549 cells) | phosphorylation status of ATM and Chk2 ([2]; MCF7, HCT-116 and A549 cells) | level of p-H2Ax (y-H2Ax) ([2]; 0.5 and 1 μM) | other results |
| --- | --- | --- | --- | --- | --- | --- | --- | --- | --- | --- | --- | --- | --- | --- | --- | --- | --- | --- | --- | --- | --- |
| COC(=O)c1cc(NC2=NC(=O)C(=Cc3ccc(C)cc3)S2)ccc1OC(C)=O [HH32, Methyl 2-acetoxy-5-[(5-(4-methylbenzylidene)-4 (H)-oxo-1,3-thiazol-2-yl)-amino]benzoate] | 11.4 | 22.9 | 6.17 ± 0.38 | 2.16 | 4.3 | 0.87 | 1.7 | 2.04 | 4.1 | 6.53 ± 0.09 | 13.3 ± 0.38 | increased | slightly changed | increased | reduced | reduced | increased | substantially increased | increased significantly | marked elevation | IC50 (HCT-116; HCT-116, SRB, mean ± SEM): 1.17 ± 0.46 µM; IC50 (MDA-MB-231; MDA-MB-231, SRB, mean ± SEM): 15.35 ± 0.08 µM; total c-Myc protein level ([2]; 1 μM, MCF7 and HCT-116 cells): downregulation; phosphorylation status of ATM and Chk2 ([2]; HeLa cells): increased significantly; cleavage of caspase-8 [2]: cleaved; ATR/Chk1 signaling [2]: activate; Guanosine levels (MCF7 cells; vs untreated cells): altered; viability of the eight tested cancer cell lines [3]: remarkable concentration-dependent decrease; selectivity index compared with doxorubicin [3]: superior in most of cancer cell lines than doxorubicin |
| COC(=O)c1cc(NC2=NC(=O)C(=Cc3ccc(N(C)C)cc3)S2)ccc1OC(C)=O [HH33, Methyl 2-acetoxy-5-[(5-(4-dimethylaminobenzylidene)-4 (H)-oxo-1,3-thiazol-2-yl)-amino]benzoate] | 13.48 | 31.9 | 2.93 ± 0.83 | 1.3 | 3.2 | 0.99 | 2.3 | 3.8 | 9 | 1.03 ± 0.11 | 3.91 ± 0.43 | increased | slightly changed | increased | reduced | reduced | increased | substantially increased | increased significantly | marked elevation | potency compared with doxorubicin (HCT-116; HCT-116 cells): nearby equipotent; level of DNA double strand breaks compared with doxorubicin ([1]; 1 μM, same concentration, three tested cell lines): higher than doxorubicin; comet length compared with HH32-treated cells ([1]; MCF7 and HCT-116 cells): markedly higher; total c-Myc protein level ([2]; 0.5 and 1 μM, four cancer cell lines): decreased; cleavage of caspase-9 ([2]; MCF7, HeLa and A549 cells): increase; cleavage of caspase-8 [2]: cleaved; reducing expression of G2/M progression proteins (cyclin A, cyclin B, CDC25c and CDC2/CDK1) ([2]; compared with HH32): more effective than HH32; ATR/Chk1 signaling [2]: activate; increase of palmitic acid (MCF7 cells): 20%; reduction of 1-Monopalmitin level (MCF7 cells; compared to control cells): 4.5 fold; level of 1-Monopalmitin (MCF7 cells; vs untreated cells): significant decreased; level of Adenosine (MCF7 cells; vs untreated cells): significant decreased; also recorded: significant reduction; level of Decanoic Acid (MCF7 cells; vs untreated cells): significant decreased; also recorded: reduction; viability of the eight tested cancer cell lines [3]: remarkable concentration-dependent decrease; selectivity index compared with doxorubicin [3]: superior in most of cancer cell lines than doxorubicin |
